How the values were obtained:
Type in all cases: cell-based
hNPY2R [1] = target: T1, hNPY2R (Homo sapiens, UniProt P49146); test: cAMP Agonist Assay, HEK293/hNPY2R cells; parameters: expressed in transfected cells; host or cells: HEK293/hNPY2R (G418 selection)
T1 sequence (P49146 1-381): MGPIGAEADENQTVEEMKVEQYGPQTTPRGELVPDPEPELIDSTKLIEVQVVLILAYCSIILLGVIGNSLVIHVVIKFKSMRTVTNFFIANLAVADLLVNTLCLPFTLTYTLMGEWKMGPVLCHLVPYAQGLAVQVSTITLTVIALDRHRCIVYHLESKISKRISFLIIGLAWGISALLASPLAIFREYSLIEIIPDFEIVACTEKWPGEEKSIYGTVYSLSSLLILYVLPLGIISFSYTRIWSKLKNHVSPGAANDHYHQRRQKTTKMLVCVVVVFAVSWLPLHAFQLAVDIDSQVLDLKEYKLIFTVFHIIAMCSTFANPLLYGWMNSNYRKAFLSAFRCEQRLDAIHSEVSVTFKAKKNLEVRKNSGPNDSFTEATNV
Experimental: On the first day, medium was discarded, and the monolayer cells were washed with 10 mL PBS per flask (T225). […] The flask was gently tapped and the cell suspension was pooled. Each flask was rinsed with 10 mL plating medium and centrifuged at 1000 rpm for 5 min. The suspension was pooled and counted. The suspension was resuspended in plating medium at a density of 2.0×10^5 cells/mL for HEK293/hNPY2R. 50 microliters of cells (HEK293/hNPY2R-10,000 cells/well) were transferred into the 384-well plate using Multi-drop dispenser. The plates were incubated at 37° C. overnight. […] The media and reagents were allowed to come to room temperature. Before the dilutions were prepared, the stock solution of stimulating compound in dimethyl sulphoxide (DMSO, Sigma, cat #D2650) was allowed to warm up to 32 C for 5-10 min. […] The cell medium was tapped off with a gentle inversion of the cell plate on a paper towel. 50 μL of stimulation medium was placed per well (each concentration done in four replicates). The plates were incubated at room temperature for 30 min, and the cells were checked under a microscope for toxicity. After 30 minutes of treatment, the stimulation media was discarded and 50 mL/well of Assay Lysis Buffer (provided in the Tropix kit) was added. The plates were incubated for 45 min@37° C. 20 μL of the lysate was transferred from stimulation plates into the pre-coated antibody plates (384-well) from the Tropix kit. 10 μL of AP conjugate and 20 μL of anti-cAMP antibody was added. The plates were incubated at room temperature while shaking for 1 hour. The plates were then washed 5 times with Wash Buffer, 70 μL per well for each wash. The plates were tapped to dry. 30 μL/well of CSPD/Saphire-II RTU substrate/enhancer solution was added and incubated for 45 min @ RT (shake). Signal for 1 sec/well in a Luminometer.

Y5R = target: T2, Y5R (Homo sapiens, UniProt Q15761); test: CaFlux Assay (FLIPR), Y5R;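 for Emax: percent of the maximal response of the positive control agonist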
T2 sequence (Q15761 1-445): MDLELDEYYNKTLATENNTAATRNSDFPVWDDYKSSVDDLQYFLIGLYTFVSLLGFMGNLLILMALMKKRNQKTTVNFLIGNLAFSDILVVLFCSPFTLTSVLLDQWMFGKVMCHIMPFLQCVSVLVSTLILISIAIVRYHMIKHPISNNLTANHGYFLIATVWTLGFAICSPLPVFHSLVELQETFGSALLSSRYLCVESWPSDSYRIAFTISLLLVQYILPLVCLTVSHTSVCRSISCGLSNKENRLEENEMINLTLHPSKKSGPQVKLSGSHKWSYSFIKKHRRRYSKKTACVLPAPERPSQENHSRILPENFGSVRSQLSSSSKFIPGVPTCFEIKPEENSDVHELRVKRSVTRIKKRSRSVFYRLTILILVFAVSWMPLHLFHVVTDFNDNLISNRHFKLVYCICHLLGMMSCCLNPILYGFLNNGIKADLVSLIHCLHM

Y1R = target: T3, Y1R (Homo sapiens, UniProt P25929); test: CaFlux Assay (FLIPR), Y1R
T3 sequence (P25929 1-384): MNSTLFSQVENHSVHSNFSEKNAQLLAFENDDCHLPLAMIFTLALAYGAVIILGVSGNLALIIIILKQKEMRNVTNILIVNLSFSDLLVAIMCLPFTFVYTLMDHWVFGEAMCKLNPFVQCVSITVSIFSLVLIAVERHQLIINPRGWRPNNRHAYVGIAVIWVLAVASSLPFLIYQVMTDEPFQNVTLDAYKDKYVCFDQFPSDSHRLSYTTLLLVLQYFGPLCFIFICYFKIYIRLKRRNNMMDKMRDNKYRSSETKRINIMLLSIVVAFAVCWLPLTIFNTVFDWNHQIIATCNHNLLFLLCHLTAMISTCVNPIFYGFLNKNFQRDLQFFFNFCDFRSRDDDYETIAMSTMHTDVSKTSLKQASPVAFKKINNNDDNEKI

hNPY2R [2] = target: T1, hNPY2R; test: CaFlux Assay (FLIPR), Y2R; parameters: expressed in transfected cells; host or cells: HEK-293 stably expressing G protein chimera Gaqi9
Experimental: Hek-293 cells were stably transfected with the G protein chimera Gaqi9 and the hygromycin-B resistance gene were further transfected with the human NPY2 receptor and G418 antibiotic selection. Following selection in both hygromycin-B and G418, individual clones were assayed for their response to PYY. The transfected cells were cultured in DMEM medium supplemented with 10% fetal bovine serum, 50 μg/mL hygromycin-B 2 mM glutamine, 100 U/mL penicillin, 100 μg/mL streptomycin and 250 μg/mL G418. Cells are harvested with trypsin-EDTA and counted using ViaCount reagent. The cell suspension volume is adjusted to 4.8×10^5 cells/mL with complete growth media. Aliquots of 25 μL are dispensed into 384 well Poly-D Lysine coated black/clear microplates (Falcon) and the microplates were placed in a 37° C. CO2 incubator overnight. Loading Buffer (Calcium-3 Assay Kit, Molecular Devices) was prepared by dissolving the contents of one vial (Express Kit) into 1000 mL Hank's Balanced Salt Solution containing 20 mM HEPES and 5 mM probenecid. Aliquots of 25 μL of diluted dye were dispensed into the cell plates and the plates are then incubated for 1 hour at 37° C. During the incubation, test compounds were prepared at 3.5× the desired concentration in HBSS (20 mM HEPES)/0.05% BSA/1% DMSO and transferred to a 384 well plate for use on FLIPR. After incubation, both the cell and compound plates were brought to the FLIPR and 20 μL of the diluted compounds were transferred to the cell plates by the FLIPR. During the assay, fluorescence readings were taken simultaneously from all 384 wells of the cell plate every 1.5 seconds. Five readings were taken to establish a stable baseline, and then 20 μL of sample was rapidly (30 μL/sec) and simultaneously added to each well of the cell plate. The fluorescence was continuously monitored before, during and after sample addition for a total elapsed time of 100 seconds. Responses (increase in peak fluorescence) in each well following addition were determined. The initial fluorescence reading from each well, prior to ligand stimulation, was used as a zero baseline value for the data from that well. The responses are expressed as % of maximal response of the positive control.

Y4R = Y4R (Homo sapiens, UniProt P50391); test: CaFlux Assay (FLIPR), Y4R
Sequence of Y4R (P50391 whole entry): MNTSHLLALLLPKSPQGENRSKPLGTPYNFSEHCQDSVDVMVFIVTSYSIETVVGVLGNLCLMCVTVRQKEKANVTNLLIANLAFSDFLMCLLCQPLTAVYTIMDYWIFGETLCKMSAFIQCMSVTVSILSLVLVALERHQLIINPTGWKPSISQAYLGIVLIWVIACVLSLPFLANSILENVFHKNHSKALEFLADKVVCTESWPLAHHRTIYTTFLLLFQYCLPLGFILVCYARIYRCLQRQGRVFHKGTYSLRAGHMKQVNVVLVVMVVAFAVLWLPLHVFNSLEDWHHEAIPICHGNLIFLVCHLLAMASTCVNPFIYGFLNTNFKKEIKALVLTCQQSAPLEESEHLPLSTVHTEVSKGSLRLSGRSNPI

## CCCC(=O)NCCCC[C@H](NC(=O)[C@@H](NC(C)=O)[C@@H](C)CC)C(=O)N1CCN(c2ccc3ncn(CC(=O)N[C@@H](CCCNC(=N)N)C(=O)N[C@@H](Cc4c[nH]cn4)C(=O)N[C@@H](Cc4ccc(O)cc4)C(=O)N[C@@H](CC(C)C)C(=O)N[C@@H](CC(N)=O)C(=O)N[C@@H](Cc4c[nH]c5ccccc45)C(=O)N[C@H](C(=O)N[C@H](C(=O)N[C@@H](CCCNC(=N)N)C(=O)N[C@@H](CCC(N)=O)C(=O)N(C)[C@@H](CCCNC(=N)N)C(=O)N[C@@H](Cc4ccc(O)cc4)C(N)=O)[C@@H](C)O)C(C)C)c(=O)c3c2)CC1 [Example 5]
hNPY2R [1]
  EC50: 0.39 nM
Y5R
  EC50: 24900 nM
Y1R
  EC50: > 5000 nM
hNPY2R [2]
  EC50: 0.18 nM
Y4R
  EC50: 31600 nM

## CCCCCCCC(=O)NCCCC[C@H](NC(=O)[C@@H](NC(C)=O)[C@@H](C)CC)C(=O)N1CCN(c2ccc3ncn(CC(=O)N[C@@H](CCCNC(=N)N)C(=O)N[C@@H](Cc4c[nH]cn4)C(=O)N[C@@H](Cc4ccc(O)cc4)C(=O)N[C@@H](CC(C)C)C(=O)N[C@@H](CC(N)=O)C(=O)N[C@@H](Cc4c[nH]c5ccccc45)C(=O)N[C@H](C(=O)N[C@H](C(=O)N[C@@H](CCCNC(=N)N)C(=O)N[C@@H](CCC(N)=O)C(=O)N(C)[C@@H](CCCNC(=N)N)C(=O)N[C@@H](Cc4ccc(O)cc4)C(N)=O)[C@@H](C)O)C(C)C)c(=O)c3c2)CC1 [Example 6]
hNPY2R [1]
  EC50: 1.7 nM
Y5R
  EC50: 99900 nM
Y1R
  EC50: 5200 nM
hNPY2R [2]
  EC50: 1.45 nM
Y4R
  EC50: 2470 nM

## CCCCCCCCCCCC(=O)NCCCC[C@H](NC(=O)[C@@H](NC(C)=O)[C@@H](C)CC)C(=O)N1CCN(c2ccc3ncn(CC(=O)N[C@@H](CCCNC(=N)N)C(=O)N[C@@H](Cc4c[nH]cn4)C(=O)N[C@@H](Cc4ccc(O)cc4)C(=O)N[C@@H](CC(C)C)C(=O)N[C@@H](CC(N)=O)C(=O)N[C@@H](Cc4c[nH]c5ccccc45)C(=O)N[C@H](C(=O)N[C@H](C(=O)N[C@@H](CCCNC(=N)N)C(=O)N[C@@H](CCC(N)=O)C(=O)N(C)[C@@H](CCCNC(=N)N)C(=O)N[C@@H](Cc4ccc(O)cc4)C(N)=O)[C@@H](C)O)C(C)C)c(=O)c3c2)CC1 [Example 7]
hNPY2R [1]
  EC50: 5.4 nM
Y5R
  EC50: 12800 nM
Y1R
  EC50: 6430 nM
hNPY2R [2]
  EC50: 4.7 nM
Y4R
  EC50: 14500 nM

## CCCCCCCCCCCC(=O)NCCCCCC(=O)NCCCC[C@H](NC(=O)[C@@H](N)[C@@H](C)CC)C(=O)N1CCN(c2ccc3ncn(CC(=O)N[C@@H](CCCNC(=N)N)C(=O)N[C@@H](Cc4c[nH]cn4)C(=O)N[C@@H](Cc4ccc(O)cc4)C(=O)N[C@@H](CC(C)C)C(=O)N[C@@H](CC(N)=O)C(=O)N[C@@H](Cc4c[nH]c5ccccc45)C(=O)N[C@H](C(=O)N[C@H](C(=O)N[C@@H](CCCNC(=N)N)C(=O)N[C@@H](CCC(N)=O)C(=O)N(C)[C@@H](CCCNC(=N)N)C(=O)N[C@@H](Cc4ccc(O)cc4)C(N)=O)[C@@H](C)O)C(C)C)c(=O)c3c2)CC1 [Example 9]
hNPY2R [1]
  EC50: 3.5 nM
Y5R
  EC50: 3790 nM
Y1R
  EC50: > 5000 nM
hNPY2R [2]
  EC50: 0.031 nM
Y4R
  EC50: 2450 nM

## CCCCCCCCCCCC(=O)NCCC(=O)NCCCC[C@H](NC(=O)[C@@H](N)[C@@H](C)CC)C(=O)N1CCN(c2ccc3ncn(CC(=O)N[C@@H](CCCNC(=N)N)C(=O)N[C@@H](Cc4c[nH]cn4)C(=O)N[C@@H](Cc4ccc(O)cc4)C(=O)N[C@@H](CC(C)C)C(=O)N[C@@H](CC(N)=O)C(=O)N[C@@H](Cc4c[nH]c5ccccc45)C(=O)N[C@H](C(=O)N[C@H](C(=O)N[C@@H](CCCNC(=N)N)C(=O)N[C@@H](CCC(N)=O)C(=O)N(C)[C@@H](CCCNC(=N)N)C(=O)N[C@@H](Cc4ccc(O)cc4)C(N)=O)[C@@H](C)O)C(C)C)c(=O)c3c2)CC1 [Example 10]
hNPY2R [1]
  EC50: 5.2 nM
Y5R
  EC50: 4740 nM
Y1R
  EC50: > 5000 nM
hNPY2R [2]
  EC50: 0.016 nM
Y4R
  EC50: 3510 nM

## CCCCCCCCCCCC(=O)N[C@@H](CCC(=O)O)C(=O)NCCCC[C@H](NC(=O)[C@@H](N)[C@@H](C)CC)C(=O)N1CCN(c2ccc3ncn(CC(=O)N[C@@H](CCCNC(=N)N)C(=O)N[C@@H](Cc4c[nH]cn4)C(=O)N[C@@H](Cc4ccc(O)cc4)C(=O)N[C@@H](CC(C)C)C(=O)N[C@@H](CC(N)=O)C(=O)N[C@@H](Cc4c[nH]c5ccccc45)C(=O)N[C@H](C(=O)N[C@H](C(=O)N[C@@H](CCCNC(=N)N)C(=O)N[C@@H](CCC(N)=O)C(=O)N(C)[C@@H](CCCNC(=N)N)C(=O)N[C@@H](Cc4ccc(O)cc4)C(N)=O)[C@@H](C)O)C(C)C)c(=O)c3c2)CC1 [Example 11]
hNPY2R [1]
  EC50: 3.6 nM
Y5R
  EC50: 3550 nM
Y1R
  EC50: > 5000 nM
hNPY2R [2]
  EC50: 0.026 nM
Y4R
  EC50: 2430 nM

## CCCCCCCCCCCCCCCC(=O)NCCCC[C@H](NC(=O)[C@@H](NC(C)=O)[C@@H](C)CC)C(=O)N1CCN(c2ccc3ncn(CC(=O)N[C@@H](CCCNC(=N)N)C(=O)N[C@@H](Cc4c[nH]cn4)C(=O)N[C@@H](Cc4ccc(O)cc4)C(=O)N[C@@H](CC(C)C)C(=O)N[C@@H](CC(N)=O)C(=O)N[C@@H](Cc4c[nH]c5ccccc45)C(=O)N[C@H](C(=O)N[C@H](C(=O)N[C@@H](CCCNC(=N)N)C(=O)N[C@@H](CCC(N)=O)C(=O)N(C)[C@@H](CCCNC(=N)N)C(=O)N[C@@H](Cc4ccc(O)cc4)C(N)=O)[C@@H](C)O)C(C)C)c(=O)c3c2)CC1 [Example 13]
hNPY2R [1]
  EC50: 1.2 nM
Y5R
  EC50: 9380 nM
Y1R
  EC50: 29200 nM
hNPY2R [2]
  EC50: 1.31 nM
Y4R
  EC50: 32200 nM

## CCCCCCCCCCCCCCCC(=O)NCCCC[C@H](NC(=O)[C@@H](N)[C@@H](C)CC)C(=O)N1CCN(c2ccc3ncn(CC(=O)N[C@@H](CCCNC(=N)N)C(=O)N[C@@H](Cc4c[nH]cn4)C(=O)N[C@@H](Cc4ccc(O)cc4)C(=O)N[C@@H](CC(C)C)C(=O)N[C@@H](CC(N)=O)C(=O)N[C@@H](Cc4c[nH]c5ccccc45)C(=O)N[C@H](C(=O)N[C@H](C(=O)N[C@@H](CCCNC(=N)N)C(=O)N[C@@H](CCC(N)=O)C(=O)N(C)[C@@H](CCCNC(=N)N)C(=O)N[C@@H](Cc4ccc(O)cc4)C(N)=O)[C@@H](C)O)C(C)C)c(=O)c3c2)CC1 [Example 14]
hNPY2R [1]
  EC50: 1 nM
Y5R
  EC50: 12700 nM
Y1R
  EC50: > 5000 nM
hNPY2R [2]
  EC50: 0.73 nM
Y4R
  EC50: > 5000 nM

## CCCCCCCCCCCCCCCC(=O)N[C@H](C(=O)N[C@@H](CCCCN)C(=O)N1CCN(c2ccc3ncn(CC(=O)N[C@@H](CCCNC(=N)N)C(=O)N[C@@H](Cc4c[nH]cn4)C(=O)N[C@@H](Cc4ccc(O)cc4)C(=O)N[C@@H](CC(C)C)C(=O)N[C@@H](CC(N)=O)C(=O)N[C@@H](Cc4c[nH]c5ccccc45)C(=O)N[C@H](C(=O)N[C@H](C(=O)N[C@@H](CCCNC(=N)N)C(=O)N[C@@H](CCC(N)=O)C(=O)N(C)[C@@H](CCCNC(=N)N)C(=O)N[C@@H](Cc4ccc(O)cc4)C(N)=O)[C@@H](C)O)C(C)C)c(=O)c3c2)CC1)[C@@H](C)CC [Example 15]
hNPY2R [1]
  EC50: 0.97 nM
Y5R
  EC50: > 5000 nM
Y1R
  EC50: > 5000 nM
hNPY2R [2]
  EC50: 1.03 nM
Y4R
  EC50: 1360 nM

## CCCCCCCCCCCCCCCC(=O)NCCC(=O)N[C@@H](CCC(=O)O)C(=O)NCCCC[C@H](NC(=O)[C@@H](N)[C@@H](C)CC)C(=O)N1CCN(c2ccc3ncn(CC(=O)N[C@@H](CCCNC(=N)N)C(=O)N[C@@H](Cc4c[nH]cn4)C(=O)N[C@@H](Cc4ccc(O)cc4)C(=O)N[C@@H](CC(C)C)C(=O)N[C@@H](CC(N)=O)C(=O)N[C@@H](Cc4c[nH]c5ccccc45)C(=O)N[C@H](C(=O)N[C@H](C(=O)N[C@@H](CCCNC(=N)N)C(=O)N[C@@H](CCC(N)=O)C(=O)N(C)[C@@H](CCCNC(=N)N)C(=O)N[C@@H](Cc4ccc(O)cc4)C(N)=O)[C@@H](C)O)C(C)C)c(=O)c3c2)CC1 [Example 22]
Y5R; read-out: Y5R FLIPR, percentage in parentheses under the EC50
  Emax: 70%
